Measurements from US10798943B2, “Use of 6-anilino purine derivatives to improve heat stress tolerance of rice seedlings” (SYNGENTA PARTICIPATIONS AG, priority 2016, dated 2020).

Assays:
[1] = test system: rice seedlings (hybrid rice variety ADT45) under heat stress; assay: Green seeker data, Ramapuram trial; assay type: in vivo; design: key: percentage green area (NDVI), higher = better tolerance
Description: Trials were setup in two locations in India to test the effect of compounds of formula I on tolerance of rice seedlings to heat stress during transplantation.
For each trial, hybrid rice variety ADT45 was sown in seedling boxes. A compound of formula (Ia) was applied by foliar spray in the form of an EC formulation, at various dose rates and seedling growth stages as shown in Table 1.
Transplanting took place at the […] growth stage. Transplant shock was used as an indicator of tolerance to heat stress, and was measured via visual assessment of damage severity on a scale of 0% (no damage) to 100% (dead plant); observations such as yellowing and leaf tip burning are indicators of damage. Transplant shock was also assessed by measuring NVDI values using a Green Seeker™ crop sensor, which measures the percentage green area. A low transplant shock stress rating and high NVDI rating indicate improved tolerance to transplant shock stress.
The trial was carried out between 5 Aug. 2015 and 9 Sep. 2015, with transplanting on 15 Aug. 2015. The mean maximum daily temperature during the trial period was 35.3° C., and mean minimum daily temperature during the trial period was 23.7° C. The mean temperature during the entire trial period was 30.2° C.

[2] = test system: rice seedlings (hybrid rice variety ADT45); assay: Phytotoxicity assessments at Kumbakonam trial; assay type: in vivo; conditions: for Greenness at 3.2 leaf / Seedling height at 3.2 leaf / Seedling injury / Time to 3.2 leaf / Uniformity of foliage growth at 3.2 leaf / Uniformity of greening at 3.2 leaf / Whiteness of root mat at 3.2 leaf: Kumbakonam
Experimental: For each trial, hybrid rice variety ADT45 was sown in seedling boxes. A compound of formula (Ia) was applied by foliar spray in the form of an EC formulation, at various dose rates and seedling growth stages as shown in Table 1. [table] […] The trial was carried out between 7 May 2015 and 15 Jun. 2015, with transplanting on 29 May 2015. The mean maximum daily temperature during the trial period was 37.3° C., and mean minimum daily temperature during the trial period was 24.9° C. The mean temperature during the entire trial period was 31.1° C.

[3] = treatment 2: 5 g ai/ha, Pigeon-breast
[4] = treatment 3: 10 g ai/ha, Pigeon-breast
[5] = treatment 4: 20 g ai/ha, Pigeon-breast
[6] = treatment 6: 10 g ai/ha, 2-leaf
[7] = treatment 7: 20 g ai/ha, 2-leaf
[8] = treatment 9: 10 g ai/ha, 3-leaf
[9] = treatment 10: 20 g ai/ha, 3-leaf

## COc1cccc(Nc2nc(F)nc3[nH]cnc23)c1 [Formula Ia]
[1]; [3]
  Green seeker data (15 DAT afternoon): 28
  Green seeker data (15 DAT evening): 31
  Green seeker data (15 DAT morning): 22
[1]; [4]
  Green seeker data (15 DAT afternoon): 25
  Green seeker data (15 DAT evening): 29
  Green seeker data (15 DAT morning): 25
[1]; [5]
  Green seeker data (15 DAT afternoon): 28
  Green seeker data (15 DAT evening): 25
  Green seeker data (15 DAT morning): 21
[1]; treatment 5: 5 g ai/ha, 2-leaf
  Green seeker data (15 DAT afternoon): 27
  Green seeker data (15 DAT evening): 34
  Green seeker data (15 DAT morning): 25
[1]; [6]
  Green seeker data (15 DAT afternoon): 29
  Green seeker data (15 DAT evening): 32
  Green seeker data (15 DAT morning): 28
[1]; [7]
  Green seeker data (15 DAT afternoon): 26
  Green seeker data (15 DAT evening): 26
  Green seeker data (15 DAT morning): 22
[1]; treatment 8: 5 g ai/ha, 3-leaf
  Green seeker data (15 DAT afternoon): 26
  Green seeker data (15 DAT evening): 30
  Green seeker data (15 DAT morning): 23
[1]; [8]
  Green seeker data (15 DAT afternoon): 26
  Green seeker data (15 DAT evening): 31
  Green seeker data (15 DAT morning): 23
[1]; [9]
  Green seeker data (15 DAT afternoon): 30
  Green seeker data (15 DAT evening): 29
  Green seeker data (15 DAT morning): 25
[2]; Kumbakonam trial, some marginal effects at the highest dose rate
  Phytotoxic effects to the rice seedlings (summary): did not cause any phytotoxic effects
[2]; [3]
  Greenness at 3.2 leaf: 3 unit
  Seedling height at 3.2 leaf: 14 cm
  Seedling injury: 0%
  Time to 3.2 leaf: 14 days
  Uniformity of foliage growth at 3.2 leaf: 90%
  Uniformity of greening at 3.2 leaf: 95%
  Whiteness of root mat at 3.2 leaf: 90%
[2]; [4]
  Greenness at 3.2 leaf: 3 unit
  Seedling height at 3.2 leaf: 13 cm
  Seedling injury: 0%
  Time to 3.2 leaf: 14 days
  Uniformity of foliage growth at 3.2 leaf: 90%
  Uniformity of greening at 3.2 leaf: 95%
  Whiteness of root mat at 3.2 leaf: 90%
[2]; [5]
  Greenness at 3.2 leaf: 3 unit
  Seedling height at 3.2 leaf: 13 cm
  Seedling injury: 0%
  Time to 3.2 leaf: 14 days
  Uniformity of foliage growth at 3.2 leaf: 90%
  Uniformity of greening at 3.2 leaf: 95%
  Whiteness of root mat at 3.2 leaf: 90%
[2]; treatment 5: 5 g ai/ha, 2-leaf
  Greenness at 3.2 leaf: 3 unit
  Seedling height at 3.2 leaf: 14 cm
  Seedling injury: 0%
  Time to 3.2 leaf: 13 days
  Uniformity of foliage growth at 3.2 leaf: 95%
  Uniformity of greening at 3.2 leaf: 95%
  Whiteness of root mat at 3.2 leaf: 85%
[2]; [6]
  Greenness at 3.2 leaf: 2.8 unit
  Seedling height at 3.2 leaf: 14 cm
  Seedling injury: 3%
  Time to 3.2 leaf: 13 days
  Uniformity of foliage growth at 3.2 leaf: 90%
  Uniformity of greening at 3.2 leaf: 90%
  Whiteness of root mat at 3.2 leaf: 85%
[2]; [7]
  Greenness at 3.2 leaf: 2.5 unit
  Seedling height at 3.2 leaf: 14 cm
  Seedling injury: 8%
  Time to 3.2 leaf: 13 days
  Uniformity of foliage growth at 3.2 leaf: 90%
  Uniformity of greening at 3.2 leaf: 85%
  Whiteness of root mat at 3.2 leaf: 85%
[2]; treatment 8: 5 g ai/ha, 3-leaf
  Greenness at 3.2 leaf: 3 unit
  Seedling height at 3.2 leaf: 14 cm
  Seedling injury: 0%
  Time to 3.2 leaf: 13 days
  Uniformity of foliage growth at 3.2 leaf: 90%
  Uniformity of greening at 3.2 leaf: 95%
  Whiteness of root mat at 3.2 leaf: 90%
[2]; [8]
  Greenness at 3.2 leaf: 3 unit
  Seedling height at 3.2 leaf: 14 cm
  Seedling injury: 0%
  Time to 3.2 leaf: 13 days
  Uniformity of foliage growth at 3.2 leaf: 90%
  Uniformity of greening at 3.2 leaf: 95%
  Whiteness of root mat at 3.2 leaf: 90%
[2]; [9]
  Greenness at 3.2 leaf: 2.5 unit
  Seedling height at 3.2 leaf: 14 cm
  Seedling injury: 15%
  Time to 3.2 leaf: 13 days
  Uniformity of foliage growth at 3.2 leaf: 90%
  Uniformity of greening at 3.2 leaf: 85%
  Whiteness of root mat at 3.2 leaf: 85%
